# Earlier results in patent US20110082200A1, “5,6,7-TRIHYDROXYHEPTANOIC ACID AND ANALOGS FOR THE TREATMENT OF OCULAR DISEASES AND DISEASES ASSOCIATED WITH HYPERPROLIFERATIVE AND ANGIOGENIC RESPONSES” (ALCON, INC., priority 2004, published 2011).
# Columns and labels:
# endothelial cell [1] = settings: in vitro
# [2] = tested on: VEGF-induced angiogenesis; settings: murine chronic granulomatous air pouch model
# endothelial cell [3] = settings: in vitro; remark: listed apart in the source
# neutrophils = settings: compared with lipoxin A4
structure (smiles),measurement,setting,value
O=C(O)CCC[C@H](O)[C@H](O)/C=C/C=C/C=C\C=C\[C@H](O)COc1ccc(F)cc1 [Lipoxin analog 3],inhibition of leukotriene D4-induced endothelial cell chemotaxis and proliferation,endothelial cell [1],inhibit
same,inhibition of VEGF-induced angiogenesis,[2],inhibit
same,inhibition of VEGF-induced endothelial cell chemotaxis and proliferation,endothelial cell [3],inhibit
CCCCC[C@H](O)[C@H](O)CO [Compound 2],inhibition of LTB4-induced chemotaxis of neutrophils,neutrophils,as potently as lipoxin A4
COC(=O)CCC[C@H](O)[C@H](O)CO [Compound 1],inhibition of LTB4-induced chemotaxis of neutrophils,neutrophils,as potently as lipoxin A4
